Test results from patent publication US20230017045A1, “PYRIDINE AND PYRIMIDINE CARBOXYLATE HERBICIDES AND METHODS OF USE THEREOF” (Dow AgroSciences LLC, priority 2017, published 2023).

Test system: test plant species
Test: Post-emergent herbicidal activity test (greenhouse, foliar spray, visual growth reduction)
Type: in vivo
Settings: post-emergence, 336 h, ALOMY: blackgrass (Alopecurus myosuroides), 140 g ai/ha, 14 days after application, read-out: Visual Growth Reduction (%) 14 Days After Application, ALOMY
Procedure, shortened: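 Greenhouse plants at first–second true leaf stage sprayed overhead at 187 L/ha with compound in acetone/water/isopropanol/DMSO/crop oil/X-77 carrier; controls received solvent blank. Injury rated visually after 14 d on a 0–100% scale versus untreated and control plants, converted to growth reduction.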

Question: For `COC(=O)c1nc(-c2ccc(OC(F)F)cc2)c(F)cc1Cl` [F165, Methyl 3-chloro-6-(4-(difluoromethoxy)phenyl)-5-fluoropicolinate], which pest or weed control at 140 g/ha is on record?
Answer: 0 to 29%

Same assay, conditions: post-emergence, 336 h, AMARE: redroot pigweed (Amaranthus retroflexus), 140 g ai/ha, 14 days after application, read-out: Visual Growth Reduction (%) 14 Days After Application, AMARE

Question: Which pest or weed control at 140 g/ha does the source give for `COC(=O)c1nc(-c2ccc(OC(F)F)cc2)c(F)cc1Cl` [F165, Methyl 3-chloro-6-(4-(difluoromethoxy)phenyl)-5-fluoropicolinate] here?
Answer: 85 to 94%

Same assay, conditions: post-emergence, 336 h, AVEFA: wild oat (Avena fatua), 140 g ai/ha, 14 days after application, read-out: Visual Growth Reduction (%) 14 Days After Application, AVEFA

Question: With `COC(=O)c1nc(-c2ccc(OC(F)F)cc2)c(F)cc1Cl` [F165, Methyl 3-chloro-6-(4-(difluoromethoxy)phenyl)-5-fluoropicolinate] as the molecule, how does the pest or weed control at 140 g/ha read?
Answer: 0 to 29%

Same assay, conditions: post-emergence, 336 h, CHEAL: lambsquarters (Chenopodium album), 140 g ai/ha, 14 days after application, read-out: Visual Growth Reduction (%) 14 Days After Application, CHEAL

Question: `COC(=O)c1nc(-c2ccc(OC(F)F)cc2)c(F)cc1Cl` [F165, Methyl 3-chloro-6-(4-(difluoromethoxy)phenyl)-5-fluoropicolinate] was tested. Which pest or weed control at 140 g/ha did it give?
Answer: 45 to 59%

Same assay, conditions: post-emergence, 336 h, CIRAR: canada thistle (Cirsium arvense), 140 g ai/ha, 14 days after application, read-out: Visual Growth Reduction (%) 14 Days After Application, CIRAR

Question: Which pest or weed control at 140 g/ha does the source give for `COC(=O)c1nc(-c2ccc(OC(F)F)cc2)c(F)cc1Cl` [F165, Methyl 3-chloro-6-(4-(difluoromethoxy)phenyl)-5-fluoropicolinate] here?
Answer: 60 to 74%

Same assay, conditions: post-emergence, 336 h, CYPES: yellow nutsedge (Cyperus esculentus), 140 g ai/ha, 14 days after application, read-out: Visual Growth Reduction (%) 14 Days After Application, CYPES

Question: How did the pest or weed control at 140 g/ha turn out when `COC(=O)c1nc(-c2ccc(OC(F)F)cc2)c(F)cc1Cl` [F165, Methyl 3-chloro-6-(4-(difluoromethoxy)phenyl)-5-fluoropicolinate] was run?
Answer: 0 to 29%

Same assay, conditions: post-emergence, 336 h, DIGSA: crabgrass (Digitaria sanguinalis), 140 g ai/ha, 14 days after application, read-out: Visual Growth Reduction (%) 14 Days After Application, DIGSA

Question: With `COC(=O)c1nc(-c2ccc(OC(F)F)cc2)c(F)cc1Cl` [F165, Methyl 3-chloro-6-(4-(difluoromethoxy)phenyl)-5-fluoropicolinate] as the molecule, how does the pest or weed control at 140 g/ha read?
Answer: 75 to 84%

Same assay, conditions: post-emergence, 336 h, ECHCG: barnyardgrass (Echinochloa crus-galli), 140 g ai/ha, 14 days after application, read-out: Visual Growth Reduction (%) 14 Days After Application, ECHCG

Question: For `COC(=O)c1nc(-c2ccc(OC(F)F)cc2)c(F)cc1Cl` [F165, Methyl 3-chloro-6-(4-(difluoromethoxy)phenyl)-5-fluoropicolinate], which pest or weed control at 140 g/ha is on record?
Answer: 60 to 74%

Question: For `COC(=O)c1nc(-c2ccc(C(F)(F)F)cc2Cl)c(F)cc1F` [F373, Methyl 6-(2-chloro-4-(trifluoromethyl)phenyl)-3,5-difluoropicolinate], which pest or weed control at 140 g/ha is on record?
Answer: 75 to 84%

Same assay, conditions: post-emergence, 336 h, IPOHE: ivy-leaf morning glory (Ipomoea hederacea), 140 g ai/ha, 14 days after application, read-out: Visual Growth Reduction (%) 14 Days After Application, IPOHE

Question: With `COC(=O)c1nc(-c2ccc(OC(F)F)cc2)c(F)cc1Cl` [F165, Methyl 3-chloro-6-(4-(difluoromethoxy)phenyl)-5-fluoropicolinate] as the molecule, how does the pest or weed control at 140 g/ha read?
Answer: 75 to 84%

Question: `COC(=O)c1nc(-c2ccc(C(F)(F)F)cc2Cl)c(F)cc1F` [F373, Methyl 6-(2-chloro-4-(trifluoromethyl)phenyl)-3,5-difluoropicolinate] was tested. Which pest or weed control at 140 g/ha did it give?
Answer: 95 to 100%

Same assay, conditions: post-emergence, 336 h, KCHSC: kochia (Bassia scoparia), 140 g ai/ha, 14 days after application, read-out: Visual Growth Reduction (%) 14 Days After Application, KCHSC

Question: For `COC(=O)c1nc(-c2ccc(OC(F)F)cc2)c(F)cc1Cl` [F165, Methyl 3-chloro-6-(4-(difluoromethoxy)phenyl)-5-fluoropicolinate], which pest or weed control at 140 g/ha is on record?
Answer: 30 to 44%

Question: With `COC(=O)c1nc(-c2ccc(C(F)(F)F)cc2Cl)c(F)cc1F` [F373, Methyl 6-(2-chloro-4-(trifluoromethyl)phenyl)-3,5-difluoropicolinate] as the molecule, how does the pest or weed control at 140 g/ha read?
Answer: 75 to 84%

Same assay, conditions: post-emergence, 336 h, ORYSA: rice (Oryza sativa), 140 g ai/ha, 14 days after application, read-out: Visual Growth Reduction (%) 14 Days After Application, ORYSA

Question: For `COC(=O)c1nc(-c2ccc(OC(F)F)cc2)c(F)cc1Cl` [F165, Methyl 3-chloro-6-(4-(difluoromethoxy)phenyl)-5-fluoropicolinate], which pest or weed control at 140 g/ha is on record?
Answer: 0 to 29%

Question: With `COC(=O)c1nc(-c2ccc(C(F)(F)F)cc2Cl)c(F)cc1F` [F373, Methyl 6-(2-chloro-4-(trifluoromethyl)phenyl)-3,5-difluoropicolinate] as the molecule, how does the pest or weed control at 140 g/ha read?
Answer: 0 to 29%

Same assay, conditions: post-emergence, 336 h, SETFA: giant foxtail (Setaria faberi), 140 g ai/ha, 14 days after application, read-out: Visual Growth Reduction (%) 14 Days After Application, SETFA

Question: For `COC(=O)c1nc(-c2ccc(OC(F)F)cc2)c(F)cc1Cl` [F165, Methyl 3-chloro-6-(4-(difluoromethoxy)phenyl)-5-fluoropicolinate], which pest or weed control at 140 g/ha is on record?
Answer: 75 to 84%

Question: Which pest or weed control at 140 g/ha does the source give for `COC(=O)c1nc(-c2ccc(C(F)(F)F)cc2Cl)c(F)cc1F` [F373, Methyl 6-(2-chloro-4-(trifluoromethyl)phenyl)-3,5-difluoropicolinate] here?
Answer: 75 to 84%

Same assay, conditions: post-emergence, 336 h, SORVU: grain sorghum (Sorghum vulgare), 140 g ai/ha, 14 days after application, read-out: Visual Growth Reduction (%) 14 Days After Application, SORVU

Question: With `COC(=O)c1nc(-c2ccc(OC(F)F)cc2)c(F)cc1Cl` [F165, Methyl 3-chloro-6-(4-(difluoromethoxy)phenyl)-5-fluoropicolinate] as the molecule, how does the pest or weed control at 140 g/ha read?
Answer: 85 to 94%

Question: `COC(=O)c1nc(-c2ccc(C(F)(F)F)cc2Cl)c(F)cc1F` [F373, Methyl 6-(2-chloro-4-(trifluoromethyl)phenyl)-3,5-difluoropicolinate] was tested. Which pest or weed control at 140 g/ha did it give?
Answer: 95 to 100%

Same assay, conditions: post-emergence, 336 h, STEME: common chickweed (Stellaria media), 140 g ai/ha, 14 days after application, read-out: Visual Growth Reduction (%) 14 Days After Application, STEME

Question: `COC(=O)c1nc(-c2ccc(OC(F)F)cc2)c(F)cc1Cl` [F165, Methyl 3-chloro-6-(4-(difluoromethoxy)phenyl)-5-fluoropicolinate] was tested. Which pest or weed control at 140 g/ha did it give?
Answer: 0 to 29%

Question: `COC(=O)c1nc(-c2ccc(C(F)(F)F)cc2Cl)c(F)cc1F` [F373, Methyl 6-(2-chloro-4-(trifluoromethyl)phenyl)-3,5-difluoropicolinate] was tested. Which pest or weed control at 140 g/ha did it give?
Answer: 30 to 44%

Same assay, conditions: post-emergence, 336 h, TRZAS: wheat, spring (Triticum aestivum), 140 g ai/ha, 14 days after application, read-out: Visual Growth Reduction (%) 14 Days After Application, TRZAS

Question: Which pest or weed control at 140 g/ha does the source give for `COC(=O)c1nc(-c2ccc(OC(F)F)cc2)c(F)cc1Cl` [F165, Methyl 3-chloro-6-(4-(difluoromethoxy)phenyl)-5-fluoropicolinate] here?
Answer: 0 to 29%

Question: With `COC(=O)c1nc(-c2ccc(C(F)(F)F)cc2Cl)c(F)cc1F` [F373, Methyl 6-(2-chloro-4-(trifluoromethyl)phenyl)-3,5-difluoropicolinate] as the molecule, how does the pest or weed control at 140 g/ha read?
Answer: 30 to 44%

Same assay, conditions: post-emergence, 336 h, blackgrass (Alopecurus myosuroides), 14 Days After Application, 140 g ai/ha, read-out: Visual Growth Reduction (%) ALOMY

Question: How did the pest or weed control at 140 g/ha turn out when `COC(=O)c1nc(-c2ccc(C(F)(F)F)cc2Cl)c(F)cc1F` [F373, Methyl 6-(2-chloro-4-(trifluoromethyl)phenyl)-3,5-difluoropicolinate] was run?
Answer: 0 to 29%

Same assay, conditions: post-emergence, 336 h, canada thistle (Cirsium arvense), 14 Days After Application, 140 g ai/ha, read-out: Visual Growth Reduction (%) CIRAR

Question: Which pest or weed control at 140 g/ha does the source give for `COC(=O)c1nc(-c2ccc(C(F)(F)F)cc2Cl)c(F)cc1F` [F373, Methyl 6-(2-chloro-4-(trifluoromethyl)phenyl)-3,5-difluoropicolinate] here?
Answer: 95 to 100%

Same assay, conditions: post-emergence, 336 h, crabgrass (Digitaria sanguinalis), 14 Days After Application, 140 g ai/ha, read-out: Visual Growth Reduction (%) DIGSA

Question: Which pest or weed control at 140 g/ha does the source give for `COC(=O)c1nc(-c2ccc(C(F)(F)F)cc2Cl)c(F)cc1F` [F373, Methyl 6-(2-chloro-4-(trifluoromethyl)phenyl)-3,5-difluoropicolinate] here?
Answer: 95 to 100%

Same assay, conditions: post-emergence, 336 h, lambsquarters (Chenopodium album), 14 Days After Application, 140 g ai/ha, read-out: Visual Growth Reduction (%) CHEAL

Question: Which pest or weed control at 140 g/ha does the source give for `COC(=O)c1nc(-c2ccc(C(F)(F)F)cc2Cl)c(F)cc1F` [F373, Methyl 6-(2-chloro-4-(trifluoromethyl)phenyl)-3,5-difluoropicolinate] here?
Answer: 95 to 100%

Same assay, conditions: post-emergence, 336 h, redroot pigweed (Amaranthus retroflexus), 14 Days After Application, 140 g ai/ha, read-out: Visual Growth Reduction (%) AMARE

Question: With `COC(=O)c1nc(-c2ccc(C(F)(F)F)cc2Cl)c(F)cc1F` [F373, Methyl 6-(2-chloro-4-(trifluoromethyl)phenyl)-3,5-difluoropicolinate] as the molecule, how does the pest or weed control at 140 g/ha read?
Answer: 95 to 100%

Same assay, conditions: post-emergence, 336 h, wild oat (Avena fatua), 14 Days After Application, 140 g ai/ha, read-out: Visual Growth Reduction (%) AVEFA

Question: `COC(=O)c1nc(-c2ccc(C(F)(F)F)cc2Cl)c(F)cc1F` [F373, Methyl 6-(2-chloro-4-(trifluoromethyl)phenyl)-3,5-difluoropicolinate] was tested. Which pest or weed control at 140 g/ha did it give?
Answer: 45 to 59%

Same assay, conditions: post-emergence, 336 h, yellow nutsedge (Cyperus esculentus), 14 Days After Application, 140 g ai/ha, read-out: Visual Growth Reduction (%) CYPES

Question: For `COC(=O)c1nc(-c2ccc(C(F)(F)F)cc2Cl)c(F)cc1F` [F373, Methyl 6-(2-chloro-4-(trifluoromethyl)phenyl)-3,5-difluoropicolinate], which pest or weed control at 140 g/ha is on record?
Answer: 0 to 29%
